In doi:10.1101/2020.07.20.212142v1 (bioRxiv, 2020):

Tests used:
NIH 3T3 cells = test: NIH 3T3 peptide permeation by live-cell confocal microscopy; type: cell-based, mouse; settings: live NIH 3T3 cells; 5 µM TAMRA-labeled peptide, Opti-mem + 2% FBS, 3 hours, 37°C
[1] = system: dechorionated Drosophila melanogaster hosts; type: in vivo; settings: dechorionated-only hosts; 20 µM peptide overnight, room temperature

| permeation by confocal fluorescence microscopy (NIH 3T3 cells) | Substance | partial loss of viability observed (in words) [1] |
| --- | --- | --- |
| no permeation was detected | TAMRA-GEGEGEG | – |
| spare punctuate fluorescence | TAMRA-MRKRHASRREK | – |
| spare punctuate fluorescence | TAMRA-RRRRRRRRR | sole exception |
| substantially greater permeation | cyclo[Glut-MRKRHASRRE-K*]-K(5-TAMRA) (sidechain bridge or staple) | – |
